Results reported in article PMC6789174 (Drug Design, Development and Therapy, 2019).
Converted amounts (≈) assume the structure as drawn.

Experiments:
[1] = biological target: α-glucosidase (Saccharomyces cerevisiae, UniProt P53341); assay: Alpha glucosidase inhibition; format: biochemical; settings: concentration 250 μg/mL
[2] = ABTS free radical scavenging
[3] = biological target: Acetylcholinesterase (Homo sapiens, UniProt P22303); assay: biochemical
[4] = system: Agrobacterium tumefaction; assay: Anti-bacterial activity, agar well diffusion; format: cell-based
[5] = DPPH free radical scavenging
[6] = system: Proteus vulgaris; assay: Anti-bacterial activity, agar well diffusion; format: cell-based
[7] = biological target: T1, porcine α-amylase (Sus scrofa, UniProt P00690); assay: biochemical
T1 sequence (P00690 16-511): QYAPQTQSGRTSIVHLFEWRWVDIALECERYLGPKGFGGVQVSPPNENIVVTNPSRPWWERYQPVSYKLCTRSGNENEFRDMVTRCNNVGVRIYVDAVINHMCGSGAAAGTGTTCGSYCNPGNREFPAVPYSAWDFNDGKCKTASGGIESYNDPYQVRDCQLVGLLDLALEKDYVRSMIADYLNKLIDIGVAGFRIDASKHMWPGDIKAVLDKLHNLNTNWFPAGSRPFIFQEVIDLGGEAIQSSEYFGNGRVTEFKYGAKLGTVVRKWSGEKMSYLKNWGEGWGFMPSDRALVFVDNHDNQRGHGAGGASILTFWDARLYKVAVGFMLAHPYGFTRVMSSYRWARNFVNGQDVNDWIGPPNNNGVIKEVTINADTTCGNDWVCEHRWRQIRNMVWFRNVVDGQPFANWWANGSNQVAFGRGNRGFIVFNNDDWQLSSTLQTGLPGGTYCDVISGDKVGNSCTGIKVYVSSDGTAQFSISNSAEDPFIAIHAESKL

[8] = biological target: T2, glucose-6-phosphatase (Homo sapiens, UniProt P35575); assay: Glucose-6-phosphatase activity; format: biochemical; settings: 33°C, pH 6.7, control 72.0
T2 sequence (P35575 1-357): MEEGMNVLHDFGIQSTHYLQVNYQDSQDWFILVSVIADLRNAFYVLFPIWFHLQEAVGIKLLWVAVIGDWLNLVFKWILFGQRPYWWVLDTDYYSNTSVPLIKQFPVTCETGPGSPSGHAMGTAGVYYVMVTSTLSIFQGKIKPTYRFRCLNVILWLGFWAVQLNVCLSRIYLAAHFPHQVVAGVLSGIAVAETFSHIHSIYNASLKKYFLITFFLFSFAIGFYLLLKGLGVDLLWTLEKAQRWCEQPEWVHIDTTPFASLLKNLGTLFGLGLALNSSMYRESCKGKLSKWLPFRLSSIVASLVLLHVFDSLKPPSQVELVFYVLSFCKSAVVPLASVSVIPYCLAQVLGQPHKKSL

[9] = system: Staphylococcus aureus; assay: Anti-bacterial activity, agar well diffusion; format: cell-based
[10] = biological target: Butyrylcholinesterase (Homo sapiens, UniProt P06276); assay: Anticholinesterase assay; format: biochemical
Sequence of Butyrylcholinesterase (P06276 29-602): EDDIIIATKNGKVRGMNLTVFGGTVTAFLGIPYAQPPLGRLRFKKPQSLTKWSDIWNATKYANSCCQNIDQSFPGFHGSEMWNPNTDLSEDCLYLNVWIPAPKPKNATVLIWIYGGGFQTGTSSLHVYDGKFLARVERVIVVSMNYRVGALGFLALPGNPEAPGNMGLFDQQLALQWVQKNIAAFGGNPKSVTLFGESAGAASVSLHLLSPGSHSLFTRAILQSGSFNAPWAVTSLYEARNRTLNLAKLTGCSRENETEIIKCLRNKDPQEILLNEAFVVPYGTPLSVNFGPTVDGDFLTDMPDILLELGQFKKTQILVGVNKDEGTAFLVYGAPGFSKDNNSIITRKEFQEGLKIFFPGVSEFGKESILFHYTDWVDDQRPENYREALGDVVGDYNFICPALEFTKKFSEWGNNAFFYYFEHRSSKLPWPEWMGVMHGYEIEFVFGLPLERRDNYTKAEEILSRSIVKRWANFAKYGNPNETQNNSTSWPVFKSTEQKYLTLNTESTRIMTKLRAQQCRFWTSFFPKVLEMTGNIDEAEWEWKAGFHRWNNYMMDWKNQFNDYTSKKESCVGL

[11] = read-out: %AChE Inhibition (mean ± SEM)
[12] = read-out: ZI (Zone of inhibition), Agrobacterium tumefaction
[13] = read-out: ZI (Zone of inhibition), Proteus vulgaris
[14] = read-out: ZI (Zone of inhibition), Staphylococcus aureus
[15] = read-out: %BChE Inhibition (mean ± SEM)

Sequence of Acetylcholinesterase (P22303 32-614, species assumed): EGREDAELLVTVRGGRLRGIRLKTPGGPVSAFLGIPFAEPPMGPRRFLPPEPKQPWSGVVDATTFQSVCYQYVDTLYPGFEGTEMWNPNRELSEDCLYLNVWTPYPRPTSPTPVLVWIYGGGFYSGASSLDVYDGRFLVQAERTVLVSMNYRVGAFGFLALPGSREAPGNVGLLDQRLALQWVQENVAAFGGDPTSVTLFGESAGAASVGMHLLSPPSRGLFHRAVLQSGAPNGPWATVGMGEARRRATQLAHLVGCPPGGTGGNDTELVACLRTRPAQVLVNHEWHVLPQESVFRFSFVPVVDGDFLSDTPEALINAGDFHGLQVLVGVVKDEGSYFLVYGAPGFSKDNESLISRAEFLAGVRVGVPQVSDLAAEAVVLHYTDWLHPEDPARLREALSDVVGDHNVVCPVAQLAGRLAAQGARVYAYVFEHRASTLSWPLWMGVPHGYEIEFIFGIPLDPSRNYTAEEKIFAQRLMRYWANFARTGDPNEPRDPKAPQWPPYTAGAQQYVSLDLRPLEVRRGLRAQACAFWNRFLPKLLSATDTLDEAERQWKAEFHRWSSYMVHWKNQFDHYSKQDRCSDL
Sequence of α-glucosidase (P53341 whole entry): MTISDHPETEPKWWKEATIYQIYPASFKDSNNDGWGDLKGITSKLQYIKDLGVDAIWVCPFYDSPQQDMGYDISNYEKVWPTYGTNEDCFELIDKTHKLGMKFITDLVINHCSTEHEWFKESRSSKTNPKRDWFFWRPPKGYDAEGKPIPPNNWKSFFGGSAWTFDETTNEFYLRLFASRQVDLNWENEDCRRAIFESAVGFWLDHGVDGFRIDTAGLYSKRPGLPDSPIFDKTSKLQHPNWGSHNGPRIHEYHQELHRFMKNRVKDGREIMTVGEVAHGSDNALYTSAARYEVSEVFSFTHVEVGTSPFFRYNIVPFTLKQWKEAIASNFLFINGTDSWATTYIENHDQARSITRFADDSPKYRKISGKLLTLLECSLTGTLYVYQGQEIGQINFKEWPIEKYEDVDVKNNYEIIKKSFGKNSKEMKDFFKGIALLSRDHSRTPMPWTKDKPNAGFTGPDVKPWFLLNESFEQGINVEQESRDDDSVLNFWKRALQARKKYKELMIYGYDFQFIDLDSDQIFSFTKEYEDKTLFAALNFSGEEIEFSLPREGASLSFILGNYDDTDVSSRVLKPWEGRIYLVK

SMILES: Cc1ccc(NC(=S)Nc2ccccc2)c(C)c1 [Compound IV, 1-(2,4-dimethylphenyl)-3-phenylthiourea]
- %Inhibition (mean ± SEM), alpha glucosidase [1]: 55.88 ± 2.04%
- ABTS IC50 [2]: 100 µg/mL
- ABTS radical scavenging, in words [2]: moderately effective
- ABTS % I (mean ± S.E.M) ([2]; concentration 125 μg/mL): 64.81 ± 1.05%
- ABTS % I (mean ± S.E.M) ([2]; concentration 250 μg/mL): 70.13± 0.05%
- ABTS % I (mean ± S.E.M) ([2]; concentration 500 μg/mL): 74.99 ± 1.51%
- ABTS % I (mean ± S.E.M) ([2]; concentration 1000 μg/mL): 78.15 ± 1.21%
- IC50 [3]: 1960 µM
- inhibition at 125 µg/mL [3, 11]: 42 ± 1.01%
- inhibition at 250 µg/mL [3, 11]: 45.1 ± 1.83%
- inhibition at 500 µg/mL [3, 11]: 50 ± 1.88%
- inhibition at 1000 µg/mL [3, 11]: 64 ± 1.7%
- MIC ([4]; read-out: MIC, Agrobacterium tumefaction): 13.5 µg/mL (≈ 52.6 µM)
- zone of inhibition at 10 µg/mL [4, 12]: 14 mm
- zone of inhibition at 20 µg/mL [4, 12]: 18 mm
- zone of inhibition at 30 µg/mL [4, 12]: 23 mm
- DPPH IC50 [5]: 64 µg/mL
- DPPH % I (mean ± S.E.M) ([5]; concentration 125 μg/mL): 66.15 ± 1.70%
- DPPH % I (mean ± S.E.M) ([5]; concentration 250 μg/mL): 69.31 ± 2.11%
- DPPH % I (mean ± S.E.M) ([5]; concentration 500 μg/mL): 74.13 ± 1.51%
- DPPH % I (mean ± S.E.M) ([5]; concentration 1000 μg/mL): 79.15 ± 1.23%
- MIC ([6]; read-out: MIC, Proteus vulgaris): 11.9 µg/mL (≈ 46.5 µM)
- zone of inhibition at 10 µg/mL [6, 13]: 14 mm
- zone of inhibition at 20 µg/mL [6, 13]: 18 mm
- zone of inhibition at 30 µg/mL [6, 13]: 23 mm
- IC50 [7]: 242 µM
- inhibition at 125 µg/mL ([7]; read-out: %Inhibition (mean ± SEM), alpha amylase, concentration 125 µg/mL): 69 ± 1.19%
- inhibition at 250 µg/mL ([7]; read-out: %Inhibition (mean ± SEM), alpha amylase, concentration 250 µg/mL): 75.63 ± 0.63%
- inhibition at 500 µg/mL ([7]; read-out: %Inhibition (mean ± SEM), alpha amylase, concentration 500 µg/mL): 79.2 ± 1.09%
- inhibition at 1000 µg/mL ([7]; read-out: %Inhibition (mean ± SEM), alpha amylase, concentration 1000 µg/mL): 80.1 ± 2.02%
- Total Activity of glucose-6-phosphatase ([8]; concentration 125 µg/mL): 17.70 mg of P released per hour
- Total Activity of glucose-6-phosphatase ([8]; concentration 250 µg/mL): 13.58 mg of P released per hour
- Total Activity of glucose-6-phosphatase ([8]; concentration 500 µg/mL): 11.77 mg of P released per hour
- MIC ([9]; read-out: MIC, Staphylococcus aureus): 4.03 µg/mL (≈ 15.7 µM)
- zone of inhibition at 10 µg/mL [9, 14]: 21 mm
- zone of inhibition at 20 µg/mL [9, 14]: 23 mm
- zone of inhibition at 30 µg/mL [9, 14]: 26 mm
- IC50 [10]: 585 µM
- inhibition at 125 µg/mL [10, 15]: 49.8 ± 1.53%
- inhibition at 250 µg/mL [10, 15]: 53.5 ± 1.07%
- inhibition at 500 µg/mL [10, 15]: 60.5 ± 1.61%
- inhibition at 1000 µg/mL [10, 15]: 76.1 ± 1.9%
